The record followed here is PubChem BioAssay (NCI).

Each structure is given as a SMILES string.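 Tested at 5 concentrations; 48 h exposure; 96-well plates; endpoints linearly interpolated, else capped at highest concentration. Abbreviation: GI50, concentration required for 50% inhibition of growth. Definition used: TGI = concentration required for complete inhibition of growth.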 Bounds are passed on as bounds.

Assay in all cases: DTP human tumour cell line panel, 48 h
The test system of assay [1] is UACC-62 melanoma.
Assay [2] has as its system NCI-H460 lung.
Assay [3] concerns NCI-H23 lung.
Assay [4] deals with CAKI-1 renal.
Assay [5] has as its system HT29 colon.
Assay [6] deals with U251 CNS.
Assay [7] has as its system K-562 leukemia.
Assay [8] has as its system T-47D breast.
Assay [9] relates to PC-3 prostate.

Consider `CC(=O)NNc1nc(C)c(C(/C=C/c2ccc(Cl)cc2)=N/NC(=S)NN)s1`, for which the TGI in [1], in assay [2], in [3], in [4], in [5] and in assay [6] was over 100 µM throughout. The compound further came in with a TGI in assay [7] of over 100 µM.
Consider `CCCCCCCCCCCCOC(=S)NC`, for which the TGI was found to be 31 µM in [1]; 34 µM in assay [2]; 40.9 µM in assay [3]; 33.1 µM in assay [5]; 32.8 µM in [6]; 45.9 µM in assay [7].
Turning to `CCN1CCC(O)(c2ccc(Cl)c(Cl)c2)C(C(=O)c2ccc(Cl)c(Cl)c2)C1` (configuration not stated), the TGI in [1] was 31.5 µM; in assay [2] it was 43.6 µM; in [3] it was 36.3 µM; in assay [4] it was 32.6 µM; in [5], 32.2 µM; in [6] it was 35.9 µM. Also, the TGI in assay [7] stood at 37.7 µM.
Turning to `COc1cc(CCC(=O)NS(=O)(=O)c2ccccc2)cc(OC)c1OC`, the TGI in [1], in assay [2], in assay [3], in assay [4], in assay [5] and in assay [6] was over 100 µM throughout. The compound further gave a TGI in [7] of over 100 µM.
With `CC(=O)OC1C/C(C)=C/[C@H](O)CC(C)/C=C/[C@@]2(C)CCC(C(C)(C)O)C12` (some centres not stated), the TGI in assay [1], in assay [2], in assay [3], in [4], in assay [5] and in [6] was over 100 µM throughout. The compound further yielded a TGI in [7] of over 100 µM.
On to `COC(=O)C(C(=O)C(=O)Nc1ccc(C)cc1C)c1nc2ccc([N+](=O)[O-])cc2[nH]c1=O` (configuration not stated), for which the TGI in [1], in assay [2], in [3], in [4], in assay [5] and in assay [6] was over 100 µM in each case. The same compound gave a TGI in [7] of over 100 µM.
As to `COC(=O)NN=C1C(C)(C)C(=NNC(=O)OC)C1(C)C`, the TGI in [1] is over 100 µM; in [2] it was over 100 µM; in [3], over 78.1 µM; in assay [4], over 100 µM; in assay [5] it was over 53.6 µM; in assay [6], over 100 µM. For the same compound, in assay [7], the total growth inhibition concentration (TGI) is over 100 µM.
In the case of `C=CC1=C(C)C(Cc2[nH]c(/C=c3\[nH]/c(=C/C4=NC(=O)C(C)/C4=C\C)c(C)c3CCC(=O)O)c(CCC(=O)OC)c2C)NC1=O` (configuration not stated), the GI50 in assay [1] is 18.7 µM; in [2], 21.7 µM; in assay [8], 36.8 µM; in assay [3] it was 28.3 µM; in assay [9], 32.9 µM; in [4], 46.3 µM. The results for the GI50 in [6] and in assay [7] were 22.5 µM and 25.7 µM, respectively. For the same compound, the TGI in [1] was 35.9 µM; in [2], over 100 µM; in assay [8] it was over 100 µM; in [3], 53.6 µM; in assay [9] it was over 100 µM; in assay [4] it was over 100 µM. The TGI in assay [6] is 52.9 µM; in [7], 61.9 µM.
With `CC(C)(C)[Si](Nc1ccccc1)(c1ccccc1)c1ccccc1`, the TGI in assay [1] was 22.7 µM; in assay [2], 37.7 µM; in [3] it was 32.8 µM; in [5], 28.7 µM; in assay [6], 26.8 µM; in assay [7], 25.1 µM.
Regarding `CCCCCCCCCCCCCCCCCCOCC1(COP(=O)([O-])OCC[N+](C)(C)C)CCCO1` (configuration not stated), the TGI was 21.4 µM in assay [1]; 3.23 µM in assay [2]; 31.9 µM in assay [3]; 12.4 µM in assay [5]; 7.03 µM in [6]; 31.7 µM in assay [7].
For the compound `NC(=O)C12CCC1C1CCCCC12N1CCOCC1` (configuration not stated), the TGI in [1], in [2], in assay [3], in assay [4], in [5] and in [6] was over 100 µM in each case. The compound also registered a TGI in assay [7] of over 100 µM.
Turning to `O=C(Cc1nc2ccccc2s1)C(=O)Nc1ccc(Cl)cc1Cl`, the TGI in [2], in assay [3], in [5], in assay [6] and in [7] was over 100 µM each time.
Turning to `CC(=O)Oc1cc(OC(C)=O)c2cc3c(cc2c1OC(C)=O)C(=O)C1(CCCC1)C3=O`, the TGI in assay [1] worked out at 30.2 µM; in assay [2], 33.1 µM; in [3] it was 34.1 µM; in [4] it was 25.2 µM; in assay [5], 30 µM; in assay [6], 32.3 µM. Further, the TGI in assay [7] was 49.3 µM.
As to `C/C(CC(=O)Nc1ccc(NC(=O)/C(C)=N/NS(=O)(=O)c2ccc(C)cc2)cc1)=N\NS(=O)(=O)c1ccc(C)cc1`, the TGI in assay [1], in assay [2], in [3], in [4], in [5] and in assay [6] was over 100 µM each time. Besides, the TGI in assay [7] was over 100 µM.
`N#CNc1nc(C(=O)Nc2ccc(Cl)cc2)cc(-c2ccccc2)n1`: the TGI in assay [1], in assay [3], in assay [4], in assay [5], in [6] and in [7] was over 100 µM in each case.
As for `O/N=C1/C(=C/c2ccc(Cl)cc2)CCCC1C(NO)c1ccc(Cl)cc1` (configuration not stated), the TGI in assay [1] was over 100 µM; in assay [2], 35.3 µM; in assay [3], 54 µM; in assay [4], 53.5 µM; in assay [5], 36.6 µM; in assay [6], 50.8 µM. In assay [7], this compound displayed a TGI of 62.2 µM.
Turning to `O=C(Nc1ccccc1)OCc1nc2c([nH]1)C(=O)C=CC2=O`, the TGI was found to be 36.9 µM in assay [1]; 36.8 µM in [2]; 40 µM in [3]; 13.4 µM in assay [4]; 58.5 µM in assay [5]; 25.5 µM in assay [6]. Further, the TGI in assay [7] turned out to be 7.36 µM.
